# Measurements from ChEMBL document CHEMBL4673329, “Polyketides from the marine-derived fungus Aspergillus falconensis: In silico and in vitro cytotoxicity studies” (Bioorg Med Chem, 2021).
# The source made the active and inactive calls. The calls are words filed in the database; no cut-off is given here.
# Experiments:
# Type in all cases: functional, cell-based
# MDA-MB-231 [1] = assay: Cytotoxicity against human MDA-MB-231 cells assessed as reduction in cell viability upto 100 uM incubated for 24 hrs by MTT assay; settings: dose microM <=100, time 24.0 hrs
# L5178Y = assay: Cytotoxicity against mouse L5178Y cells assessed as reduction in cell viability incubated for 24 hrs by MTT assay
# MDA-MB-231 [2] = assay: Inhibition of cell migration in human MDA-MB-231 at 70 uM incubated for 24 hrs by scratch wound healing assay
Structure (SMILES),Activity (MDA-MB-231 [1]),IC50 (L5178Y),inhibition (MDA-MB-231 [2])
COC(=O)c1cc(O)cc(OC)c1C(=O)c1c(O)cc(C)c(Cl)c1O,inactive,–,–
COC(=O)c1cc(O)cc(OC)c1C(=O)c1c(O)cc(C)cc1O [SULOCHRIN],inactive,5.1 µM,Active
